≈ marks a conversion by molar mass, not a printed value. Some results are limits rather than exact numbers.

Experiment [1] concerns Staphylococcus aureus (S. aureus) 29213. The experiment in a line: Antibacterial activity, microbroth dilution MIC (Table 1). The format is cell-based. The conditions noted are these: microbroth dilution, Gram-positive S. aureus 29213, read-out: MIC, 29213. Put shortly:
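Potency is reported as minimum inhibitory concentration in μg/mL, determined by broth microdilution as the lowest level of compound that stops growth visible to the eye.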
(In general: Broth dilution looks for growth in wells or tubes with falling amounts of substance.)

For experiment [2], the system named is Escherichia coli (E. coli) BAS849. Described as above. The conditions noted are these: microbroth dilution, super sensitive Gram-negative E. coli BAS849, read-out: MIC, BAS849. The format is cell-based. In a few lines:
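Growth inhibition by microbroth dilution. MIC = lowest μg/mL with no visible growth. Strain 25922 is the control Gram-negative; BAS849 is hypersensitive.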

Another experiment has as its system A. baumannii MXX2240. The experiment is described as follows: Antibacterial activity, MIC, resistant strain (Table 4). The format is cell-based. The conditions noted are these: Acinetobacter baumannii, MXX2240; resistant A. baumannii MMX2240, multi-drug resistant clinical isolate; read-out: MIC, MMX2240. In a few lines: (§1)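 MIC (μg/mL) by microbroth dilution, taken as the lowest drug concentration preventing macroscopically visible growth. MXX strains are multi-drug resistant clinical isolates.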

For the next experiment, the system named is K. pneumoniae MXX1232. The description is as above. The format is cell-based. The conditions noted are these: Klebsiella pneumoniae, MXX1232; resistant K. pneumoniae MMX1232, multi-drug resistant clinical isolate; read-out: MIC, MMX1232. In a few lines: as §1
Experiment [3] concerns Pseudomonas aeruginosa (P. aeruginosa) 27853. The experiment in a line: Antibacterial activity, MIC (Table 5). The format is cell-based. The conditions noted are these: P. aeruginosa 27853, read-out: MIC, 27853. In a few lines:
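Values are MICs in μg/mL, read as the lowest concentration at which no growth is visible by eye. They were determined by a microbroth dilution method.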

The subject of another experiment is E. coli 25922. The experiment is described as follows: Antibacterial activity, microbroth dilution MIC (Table 1). The format is cell-based, Escherichia coli. The conditions noted are these: Escherichia coli; microbroth dilution; control Gram-negative E. coli 25922 strain; read-out: MIC, 25922. In a few lines:
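Values are MICs (μg/mL): the smallest drug amount at which macroscopically visible bacterial growth is absent under assay conditions, from a microdilution method in broth.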

For another experiment, the system named is E. coli LZ3111. The experiment is described as follows: Antibacterial activity, MIC, quinolone resistant strain (Table 2). The conditions noted are these: Escherichia coli, LZ3111, read-out: MIC LZ3111. Type of experiment: cell-based. In a few lines: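 MIC values (μg/mL) came from a microbroth dilution assay, scored as the lowest drug concentration at which no growth was visible by eye.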

Experiment [4] relates to Klebsiella pneumoniae (K. pneumoniae) 35657. The experiment in a line: Antibacterial activity, MIC (Table 4). The format is cell-based. The conditions noted are these: K. pneumoniae 35657, read-out: MIC, 35657. Put shortly:
as §1

The test system of experiment [5] is Acinetobacter baumannii (A. baumannii) BAA747. The experiment in a line: Antibacterial activity, MIC (Table 4). The conditions noted are these: A. baumannii BAA747, read-out: MIC, BAA747. Type of experiment: cell-based. In a few lines:
as §1

The test system of a further experiment is E. coli ELZ4251. The experiment in a line: Antibacterial activity, MIC, multi-drug resistant clinical isolate (Table 3). The format is cell-based. The conditions noted are these: Escherichia coli. In a few lines: (§2)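 Compounds were serially diluted in broth microdilution format and growth was scored visually; the MIC is the lowest concentration at which no macroscopically visible growth occurred, expressed in μg/mL.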

The test system of a further experiment is E. coli ELZ4000. The description is as above. Type of experiment: cell-based. The conditions noted are these: Escherichia coli, ELZ4000, read-out: MIC ELZ4000. In a few lines:
as §2

Take `CCc1cc(C(=O)O)c(=O)[nH]c1-c1ccc2c(c1)cc(CCN1CCCC1)n2C` [Cpd 159, 5-ethyl-6-(1-methyl-2-(2-(pyrrolidin-1-yl)ethyl)-1H-indol-5-yl)-2-oxo-1,2-dihydropyridine-3-carboxylic acid]: the minimum inhibitory concentration (MIC) in experiment [1] is 12.5 to 150 µg/mL (≈ 31.8 to 381 µM); in [2], less than 1 µg/mL; in the experiment on A. baumannii MXX2240 it was 12.5 to 150 µg/mL (≈ 31.8 to 381 µM); with K. pneumoniae MXX1232 it was 12.5 to 150 µg/mL (≈ 31.8 to 381 µM); in experiment [3], 3.5 to 12.5 µg/mL (≈ 8.89 to 31.8 µM); in the experiment with E. coli 25922, less than 1 µg/mL. Also, the MIC with E. coli LZ3111 is 12.5 to 150 µg/mL (≈ 31.8 to 381 µM); in experiment [4] it was less than 1 µg/mL; in experiment [5], 3.5 to 12.5 µg/mL (≈ 8.89 to 31.8 µM); against E. coli ELZ4251 it was 12.5 to 150 µg/mL (≈ 31.8 to 381 µM); with E. coli ELZ4000, 12.5 to 150 µg/mL (≈ 31.8 to 381 µM).
For `CCc1c(-c2ccc3c(c2)cc(CN2CCC(OC)C2)n3C)[nH]c(=O)c(C(=O)O)c1O` (stereo not shown) [Cpd 179, 5-ethyl-4-hydroxy-6-(2-((3-methoxypyrrolidin-1-yl)methyl)-1-methyl-1H-indol-5-yl)-2-oxo-1,2-dihydropyridine-3-carboxylic acid], the MIC is 3.5 to 12.5 µg/mL (≈ 8.23 to 29.4 µM) in experiment [1]; less than 1 µg/mL in [2]; 3.5 to 12.5 µg/mL (≈ 8.23 to 29.4 µM) in the experiment with A. baumannii MXX2240; 12.5 to 150 µg/mL (≈ 29.4 to 353 µM) with K. pneumoniae MXX1232; 12.5 to 150 µg/mL (≈ 29.4 to 353 µM) in experiment [3]; 1 to 3.5 µg/mL (≈ 2.35 to 8.23 µM) in the experiment with E. coli 25922. Besides, the MIC with E. coli LZ3111 lay within 3.5 to 12.5 µg/mL (≈ 8.23 to 29.4 µM); in experiment [5], 1 to 3.5 µg/mL (≈ 2.35 to 8.23 µM); with E. coli ELZ4251, 3.5 to 12.5 µg/mL (≈ 8.23 to 29.4 µM); in the experiment with E. coli ELZ4000, 12.5 to 150 µg/mL (≈ 29.4 to 353 µM).
As for `CCc1c(-c2ccc3c(c2)cc(CN2CC(F)C2)n3C)[nH]c(=O)c(C(=O)O)c1O` [Cpd 194, 5-ethyl-6-(2-((3-fluoroazetidin-1-yl)methyl)-1-methyl-1H-indol-5-yl)-4-hydroxy-2-oxo-1,2-dihydropyridine-3-carboxylic acid], the minimal inhibitory concentration (MIC) is 3.5 to 12.5 µg/mL (≈ 8.76 to 31.3 µM) in [1]; less than 1 µg/mL in experiment [2]; 3.5 to 12.5 µg/mL (≈ 8.76 to 31.3 µM) in the experiment on A. baumannii MXX2240; 12.5 to 150 µg/mL (≈ 31.3 to 376 µM) in the experiment with K. pneumoniae MXX1232; 12.5 to 150 µg/mL (≈ 31.3 to 376 µM) in experiment [3]; 1 to 3.5 µg/mL (≈ 2.5 to 8.76 µM) in the experiment with E. coli 25922. Moreover, the MIC in the experiment on E. coli LZ3111 is 3.5 to 12.5 µg/mL (≈ 8.76 to 31.3 µM); in [5], 1 to 3.5 µg/mL (≈ 2.5 to 8.76 µM); in the experiment with E. coli ELZ4251, 12.5 to 150 µg/mL (≈ 31.3 to 376 µM); in the experiment with E. coli ELZ4000 it was 12.5 to 150 µg/mL (≈ 31.3 to 376 µM).
With `CCc1c(-c2ccc3c(c2)cc(CN2CC(CO)C2)n3C)[nH]c(=O)c(C(=O)O)c1O` [Cpd 271, 5-ethyl-4-hydroxy-6-(2-((3-(hydroxymethyl)azetidin-1-yl)methyl)-1-methyl-1H-indol-5-yl)-2-oxo-1,2-dihydropyridine-3-carboxylic acid], the minimum inhibitory concentration (MIC) in [1] is 12.5 to 150 µg/mL (≈ 30.4 to 365 µM); in experiment [2], less than 1 µg/mL; in the experiment on A. baumannii MXX2240 it was 12.5 to 150 µg/mL (≈ 30.4 to 365 µM); with K. pneumoniae MXX1232, 12.5 to 150 µg/mL (≈ 30.4 to 365 µM); in experiment [3], 3.5 to 12.5 µg/mL (≈ 8.51 to 30.4 µM); in the experiment on E. coli 25922, less than 1 µg/mL. Moreover, the minimal inhibitory concentration (MIC) with E. coli LZ3111 lay within 3.5 to 12.5 µg/mL (≈ 8.51 to 30.4 µM); in experiment [5], 1 to 3.5 µg/mL (≈ 2.43 to 8.51 µM); against E. coli ELZ4251 it was 3.5 to 12.5 µg/mL (≈ 8.51 to 30.4 µM); in the experiment on E. coli ELZ4000 it was 12.5 to 150 µg/mL (≈ 30.4 to 365 µM).
As to `CCc1c(-c2ccc3c(c2)cc(CNC(CF)CF)n3C)[nH]c(=O)c(C(=O)O)c1O` [Cpd 274, 6-(2-((1,3-difluoropropan-2-ylamino)methyl)-1-methyl-1H-indol-5-yl)-5-ethyl-4-hydroxy-2-oxo-1,2-dihydropyridine-3-carboxylic acid], the MIC in experiment [1] was 3.5 to 12.5 µg/mL (≈ 8.34 to 29.8 µM); in experiment [2], less than 1 µg/mL; in the experiment with A. baumannii MXX2240, 3.5 to 12.5 µg/mL (≈ 8.34 to 29.8 µM); in the experiment on K. pneumoniae MXX1232 it was 12.5 to 150 µg/mL (≈ 29.8 to 358 µM); in experiment [3] it was 12.5 to 150 µg/mL (≈ 29.8 to 358 µM); in the experiment with E. coli 25922 it was 1 to 3.5 µg/mL (≈ 2.38 to 8.34 µM). Besides, the MIC with E. coli LZ3111 lay within 3.5 to 12.5 µg/mL (≈ 8.34 to 29.8 µM); in experiment [5], 3.5 to 12.5 µg/mL (≈ 8.34 to 29.8 µM); in the experiment with E. coli ELZ4251, 3.5 to 12.5 µg/mL (≈ 8.34 to 29.8 µM); in the experiment with E. coli ELZ4000, 12.5 to 150 µg/mL (≈ 29.8 to 358 µM).
In the case of `Cc1c(-c2ccc3c(c2)cc(CN2CCCC2)n3C)[nH]c(=O)c(C(=O)O)c1O` [Cpd 313, 4-hydroxy-5-methyl-6-(1-methyl-2-(pyrrolidin-1-ylmethyl)-1H-indol-5-yl)-2-oxo-1,2-dihydropyridine-3-carboxylic acid], the MIC is 12.5 to 150 µg/mL (≈ 32.8 to 393 µM) in experiment [1]; less than 1 µg/mL in experiment [2]; 1 to 3.5 µg/mL (≈ 2.62 to 9.18 µM) in the experiment with A. baumannii MXX2240; 12.5 to 150 µg/mL (≈ 32.8 to 393 µM) in the experiment with K. pneumoniae MXX1232; 12.5 to 150 µg/mL (≈ 32.8 to 393 µM) in experiment [3]; 3.5 to 12.5 µg/mL (≈ 9.18 to 32.8 µM) in the experiment with E. coli 25922. The MIC with E. coli LZ3111 was in the range of 1 to 3.5 µg/mL (≈ 2.62 to 9.18 µM); in experiment [5], 3.5 to 12.5 µg/mL (≈ 9.18 to 32.8 µM); with E. coli ELZ4251, 1 to 3.5 µg/mL (≈ 2.62 to 9.18 µM); in the experiment with E. coli ELZ4000, 3.5 to 12.5 µg/mL (≈ 9.18 to 32.8 µM).

What is called MIC is the least concentration at which growth counts as inhibited.

For the origin of these results see US9409905B2, “Antibacterial compounds and methods for use” (PTC THERAPEUTICS, INC., priority 2011, dated 2016).
